Measured values published in the supplement of paper PMC10307832.

Columns and labels:
Test in all cases: relative viability (nuclei count vs DMSO), 5 days (fraction); higher = more cells survive
[1] = system: NCI-H1975
How it was run: (§1)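 Relative viability equals treated-well nuclei counts divided by vehicle-well nuclei counts. Counts came from 4× images of lung cancer cell lines grown in 1536-well plates for 5 days after pin-tool dosing on the day after seeding. Dosing used one drug alone or a fixed anchor-drug dose plus five library-drug doses (not always all listed) in √10 steps, and values are medians of duplicate plates.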

[2] = system: NCI-H520
How it was run: as §1

[3] = system: SW 900
How it was run: as §1

[4] = system: NCI-H1734
How it was run: as §1

[5] = system: ChaGo-K-1
How it was run: as §1

[6] = system: NCI-H596
How it was run: as §1

[7] = system: H3255
How it was run: as §1

[8] = system: A-427
How it was run: as §1

[9] = system: NCI-H2170
How it was run: as §1

[10] = system: SK-MES-1
How it was run: as §1

[11] = system: PC-3 [JPC-3]
How it was run: as §1

[12] = system: NCI-H23
How it was run: as §1

[13] = system: EKVX
How it was run: as §1

[14] = system: NCI-H1755
How it was run: as §1

[15] = system: LK-2
How it was run: as §1

[16] = system: COR-L 105
How it was run: as §1

[17] = system: HCC-366
How it was run: as §1

[18] = system: NCI-H441
How it was run: as §1

[19] = system: LOU-NH91
How it was run: as §1

[20] = system: NCI-H1666
How it was run: as §1

[21] = system: EMC-BAC-2
How it was run: as §1

NC(=O)Nc1cc(-c2cccc(F)c2)sc1C(=O)N[C@H]1CCCNC1 [AZD7762] + O=C(CCCCCCC(=O)Nc1ccccc1)NO [Vorinostat] (partner 1 µM)
relative viability ([1]; first compound 0.01 µM): 0.725 | relative viability ([1]; first compound 0.03162 µM): 0.641 | relative viability ([1]; first compound 0.1 µM): 0.655 | relative viability ([1]; first compound 0.3162 µM): 0.626 | relative viability ([1]; first compound 1 µM): 0.401 | relative viability ([2]; first compound 0.01 µM): 0.78 | relative viability ([2]; first compound 0.03162 µM): 0.825 | relative viability ([2]; first compound 0.1 µM): 0.635 | relative viability ([2]; first compound 0.3162 µM): 0.375 | relative viability ([2]; first compound 1 µM): 0.187 | relative viability ([3]; first compound 0.01 µM): 0.643 | relative viability ([3]; first compound 0.03162 µM): 0.445 | relative viability ([3]; first compound 0.1 µM): 0.545 | relative viability ([3]; first compound 0.3162 µM): 0.262 | relative viability ([3]; first compound 1 µM): 0.275 | relative viability ([4]; first compound 0.01 µM): 0.772 | relative viability ([4]; first compound 0.03162 µM): 0.723 | relative viability ([4]; first compound 0.1 µM): 0.738 | relative viability ([4]; first compound 0.3162 µM): 0.415 | relative viability ([4]; first compound 1 µM): 0.251 | relative viability ([5]; first compound 0.01 µM): 0.744 | relative viability ([5]; first compound 0.03162 µM): 0.743 | relative viability ([5]; first compound 0.1 µM): 0.739 | relative viability ([5]; first compound 0.3162 µM): 0.785 | relative viability ([5]; first compound 1 µM): 0.793 | relative viability ([6]; first compound 0.01 µM): 0.691 | relative viability ([6]; first compound 0.03162 µM): 0.803 | relative viability ([6]; first compound 0.1 µM): 0.716 | relative viability ([6]; first compound 0.3162 µM): 0.593 | relative viability ([6]; first compound 1 µM): 0.594 | relative viability ([7]; first compound 0.01 µM): 0.944 | relative viability ([7]; first compound 0.03162 µM): 0.831 | relative viability ([7]; first compound 0.1 µM): 0.809 | relative viability ([7]; first compound 0.3162 µM): 0.722 | relative viability ([7]; first compound 1 µM): 0.684 | relative viability ([8]; first compound 0.01 µM): 0.875 | relative viability ([8]; first compound 0.03162 µM): 0.874 | relative viability ([8]; first compound 0.1 µM): 0.857 | relative viability ([8]; first compound 0.3162 µM): 0.728 | relative viability ([8]; first compound 1 µM): 0.41 | relative viability ([9]; first compound 0.01 µM): 0.81 | relative viability ([9]; first compound 0.03162 µM): 0.834 | relative viability ([9]; first compound 0.1 µM): 0.766 | relative viability ([9]; first compound 0.3162 µM): 0.772 | relative viability ([9]; first compound 1 µM): 0.824 | relative viability ([10]; first compound 0.01 µM): 1.12 | relative viability ([10]; first compound 0.03162 µM): 1.01 | relative viability ([10]; first compound 0.1 µM): 0.841 | relative viability ([10]; first compound 0.3162 µM): 0.45 | relative viability ([10]; first compound 1 µM): 0.192 | relative viability ([11]; first compound 0.01 µM): 0.644 | relative viability ([11]; first compound 0.03162 µM): 0.888 | relative viability ([11]; first compound 0.1 µM): 0.759 | relative viability ([11]; first compound 0.3162 µM): 0.607 | relative viability ([11]; first compound 1 µM): 0.501 | relative viability ([12]; first compound 0.01 µM): 0.634 | relative viability ([12]; first compound 0.03162 µM): 0.503 | relative viability ([12]; first compound 0.1 µM): 0.582 | relative viability ([12]; first compound 0.3162 µM): 0.248 | relative viability ([12]; first compound 1 µM): 0.149 | relative viability ([13]; first compound 0.01 µM): 0.78 | relative viability ([13]; first compound 0.03162 µM): 0.758 | relative viability ([13]; first compound 0.1 µM): 0.707 | relative viability ([13]; first compound 0.3162 µM): 0.794 | relative viability ([13]; first compound 1 µM): 0.461 | relative viability ([14]; first compound 0.01 µM): 0.804 | relative viability ([14]; first compound 0.03162 µM): 0.723 | relative viability ([14]; first compound 0.1 µM): 0.72 | relative viability ([14]; first compound 0.3162 µM): 0.663 | relative viability ([14]; first compound 1 µM): 0.423 | relative viability ([15]; first compound 0.01 µM): 0.307 | relative viability ([15]; first compound 0.03162 µM): 0.316 | relative viability ([15]; first compound 0.1 µM): 0.272 | relative viability ([15]; first compound 0.3162 µM): 0.468 | relative viability ([15]; first compound 1 µM): 0.283 | relative viability ([16]; first compound 0.01 µM): 0.989 | relative viability ([16]; first compound 0.03162 µM): 0.823 | relative viability ([16]; first compound 0.1 µM): 0.808 | relative viability ([16]; first compound 0.3162 µM): 0.609 | relative viability ([16]; first compound 1 µM): 0.444 | relative viability ([17]; first compound 0.01 µM): 0.455 | relative viability ([17]; first compound 0.03162 µM): 0.301 | relative viability ([17]; first compound 0.1 µM): 0.39 | relative viability ([17]; first compound 0.3162 µM): 0.188 | relative viability ([17]; first compound 1 µM): 0.104 | relative viability ([18]; first compound 0.01 µM): 1.09 | relative viability ([18]; first compound 0.03162 µM): 0.804 | relative viability ([18]; first compound 0.1 µM): 1.01 | relative viability ([18]; first compound 0.3162 µM): 0.864 | relative viability ([18]; first compound 1 µM): 0.312 | relative viability ([19]; first compound 0.01 µM): 0.87 | relative viability ([19]; first compound 0.03162 µM): 0.971 | relative viability ([19]; first compound 0.1 µM): 0.917 | relative viability ([19]; first compound 0.3162 µM): 0.741 | relative viability ([19]; first compound 1 µM): 0.646 | relative viability ([20]; first compound 0.01 µM): 1.16 | relative viability ([20]; first compound 0.03162 µM): 1.17 | relative viability ([20]; first compound 0.1 µM): 1.22 | relative viability ([20]; first compound 0.3162 µM): 1.21 | relative viability ([20]; first compound 1 µM): 1.07 | relative viability ([21]; first compound 0.01 µM): 0.416 | relative viability ([21]; first compound 0.03162 µM): 0.475 | relative viability ([21]; first compound 0.1 µM): 0.523 | relative viability ([21]; first compound 0.3162 µM): 0.456 | relative viability ([21]; first compound 1 µM): 0.456
